The source of these data is ChEMBL document CHEMBL5649169 (ChemMedChem, 2018).

For experiment [1], the target named is Activator of 90 kDa heat shock protein ATPase homolog 1 (Homo sapiens) (UniProt O95433).
Experiment [2] deals with Lysophosphatidylcholine acyltransferase 1 (Homo sapiens) (UniProt Q8NF37).
The target of experiment [3] is Oxysterol-binding protein-related protein 3 (Homo sapiens) (UniProt Q9H4L5).
Experiment [4] addresses Man(5)GlcNAc(2)-PP-dolichol translocation protein RFT1 (Homo sapiens) (UniProt Q96AA3).
The target in experiment [5] is Secretory carrier-associated membrane protein 2 (Homo sapiens) (UniProt O15127).
For experiment [6], the target named is Electrogenic aspartate/glutamate antiporter SLC25A13, mitochondrial (Homo sapiens) (UniProt Q9UJS0).
In experiment [7] the target is Dolichyl-diphosphooligosaccharide--protein glycosyltransferase subunit STT3B (Homo sapiens) (UniProt Q8TCJ2).
Chain of Dolichyl-diphosphooligosaccharide--protein glycosyltransferase subunit STT3B (Homo sapiens) (Q8TCJ2 whole entry): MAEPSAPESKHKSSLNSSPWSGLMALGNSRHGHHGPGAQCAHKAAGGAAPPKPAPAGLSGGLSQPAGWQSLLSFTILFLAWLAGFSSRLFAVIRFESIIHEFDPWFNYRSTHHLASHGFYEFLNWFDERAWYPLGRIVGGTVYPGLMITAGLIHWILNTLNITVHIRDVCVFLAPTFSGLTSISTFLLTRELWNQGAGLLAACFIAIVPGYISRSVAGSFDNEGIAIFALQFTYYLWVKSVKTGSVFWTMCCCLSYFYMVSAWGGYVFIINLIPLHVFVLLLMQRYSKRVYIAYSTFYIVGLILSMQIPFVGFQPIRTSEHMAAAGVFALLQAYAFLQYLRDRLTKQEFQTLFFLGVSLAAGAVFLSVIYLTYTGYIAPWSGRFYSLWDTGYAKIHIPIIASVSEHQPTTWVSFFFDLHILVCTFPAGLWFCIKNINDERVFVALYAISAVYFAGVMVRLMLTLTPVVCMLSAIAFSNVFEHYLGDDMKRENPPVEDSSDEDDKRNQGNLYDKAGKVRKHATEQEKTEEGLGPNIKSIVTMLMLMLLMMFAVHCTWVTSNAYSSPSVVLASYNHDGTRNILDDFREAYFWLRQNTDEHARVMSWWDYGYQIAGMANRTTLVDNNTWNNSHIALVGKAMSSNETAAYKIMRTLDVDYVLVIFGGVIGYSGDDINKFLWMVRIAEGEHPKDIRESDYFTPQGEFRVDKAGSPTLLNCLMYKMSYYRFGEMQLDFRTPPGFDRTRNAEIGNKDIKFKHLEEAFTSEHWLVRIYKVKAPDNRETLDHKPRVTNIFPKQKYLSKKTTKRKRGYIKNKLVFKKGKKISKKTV
In experiment [8] the target is Antigen peptide transporter 1 (Homo sapiens) (UniProt Q03518).
Chain of Antigen peptide transporter 1 (Homo sapiens) (Q03518 whole entry): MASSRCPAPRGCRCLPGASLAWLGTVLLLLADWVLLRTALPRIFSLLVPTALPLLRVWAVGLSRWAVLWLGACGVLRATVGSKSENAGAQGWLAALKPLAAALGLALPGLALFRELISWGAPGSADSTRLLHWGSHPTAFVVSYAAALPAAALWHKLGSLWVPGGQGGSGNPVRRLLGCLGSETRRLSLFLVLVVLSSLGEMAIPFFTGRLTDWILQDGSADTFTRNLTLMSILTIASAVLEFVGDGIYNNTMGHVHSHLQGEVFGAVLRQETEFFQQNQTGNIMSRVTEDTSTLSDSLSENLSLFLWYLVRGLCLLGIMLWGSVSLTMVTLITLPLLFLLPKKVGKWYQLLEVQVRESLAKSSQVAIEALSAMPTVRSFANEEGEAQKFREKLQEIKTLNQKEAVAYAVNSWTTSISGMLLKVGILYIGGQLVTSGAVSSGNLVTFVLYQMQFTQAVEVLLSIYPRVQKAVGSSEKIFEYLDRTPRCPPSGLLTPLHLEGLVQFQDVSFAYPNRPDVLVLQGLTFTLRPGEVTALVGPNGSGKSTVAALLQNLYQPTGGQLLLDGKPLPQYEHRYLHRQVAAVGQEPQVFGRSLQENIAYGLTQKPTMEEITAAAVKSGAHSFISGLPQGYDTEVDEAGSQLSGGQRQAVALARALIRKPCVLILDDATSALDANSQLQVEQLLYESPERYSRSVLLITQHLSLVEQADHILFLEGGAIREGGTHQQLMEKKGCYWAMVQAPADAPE
Experiment [9] addresses 14-3-3 protein zeta/delta (Homo sapiens) (UniProt P63104).
The target of experiment [10] is Zinc finger protein with KRAB and SCAN domains 2 (Homo sapiens) (UniProt Q63HK3).
Experiment [11] deals with ATP-binding cassette sub-family F member 2 (Homo sapiens) (UniProt Q9UG63).
Experiment [12] has as its target Serine hydrolase BPHL (Homo sapiens) (UniProt Q86WA6).
For experiment [13], the target named is CCAAT/enhancer-binding protein zeta (Homo sapiens) (UniProt Q03701).
Another experiment concerns the target Cullin-5 (Homo sapiens) (UniProt Q93034).
Experiment [14] deals with N(G),N(G)-dimethylarginine dimethylaminohydrolase 1 (Homo sapiens) (UniProt O94760).
For experiment [15], the target named is Mitotic deacetylase-associated SANT domain protein (Homo sapiens) (UniProt Q6PJG2).
Experiment [16] addresses Lysine-specific histone demethylase 1A (Homo sapiens) (UniProt O60341).
Experiment [17] concerns the target Nuclear cap-binding protein subunit 2 (Homo sapiens) (UniProt P52298).
Experiment [18] deals with Nucleolar protein 58 (Homo sapiens) (UniProt Q9Y2X3).
Chain of Nucleolar protein 58 (Homo sapiens) (Q9Y2X3 whole entry): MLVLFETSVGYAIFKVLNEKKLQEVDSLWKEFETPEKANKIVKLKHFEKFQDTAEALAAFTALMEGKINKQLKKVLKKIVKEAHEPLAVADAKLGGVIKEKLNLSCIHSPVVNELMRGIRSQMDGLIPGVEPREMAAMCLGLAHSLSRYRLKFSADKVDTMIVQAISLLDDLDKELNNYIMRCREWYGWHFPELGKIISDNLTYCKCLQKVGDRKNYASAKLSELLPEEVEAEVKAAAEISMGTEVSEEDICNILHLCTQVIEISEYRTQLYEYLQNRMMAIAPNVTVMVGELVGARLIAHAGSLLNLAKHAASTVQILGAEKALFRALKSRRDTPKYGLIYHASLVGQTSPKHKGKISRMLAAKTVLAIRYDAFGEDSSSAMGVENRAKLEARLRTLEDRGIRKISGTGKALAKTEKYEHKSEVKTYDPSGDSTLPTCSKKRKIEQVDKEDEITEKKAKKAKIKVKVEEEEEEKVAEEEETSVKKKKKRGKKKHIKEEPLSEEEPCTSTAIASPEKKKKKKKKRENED
In experiment [19] the target is Glucocorticoid receptor (Homo sapiens) (UniProt P04150).
The target in experiment [20] is OCIA domain-containing protein 1 (Homo sapiens) (UniProt Q9NX40).
The target of experiment [21] is Protein kinase C and casein kinase substrate in neurons protein 2 (Homo sapiens) (UniProt Q9UNF0).
Experiment [22] addresses Mismatch repair endonuclease PMS2 (Homo sapiens) (UniProt P54278).
In experiment [23] the target is Prospero homeobox protein 1 (Homo sapiens) (UniProt Q92786).
Experiment [24] addresses E3 ubiquitin-protein ligase RNF5 (Homo sapiens) (UniProt Q99942).
Experiment [25] has as its target 45 kDa calcium-binding protein (Homo sapiens) (UniProt Q9BRK5).
The target in experiment [26] is Small nuclear ribonucleoprotein F (Homo sapiens) (UniProt P62306).
Chain of Small nuclear ribonucleoprotein F (Homo sapiens) (P62306 2-86 limits assumed): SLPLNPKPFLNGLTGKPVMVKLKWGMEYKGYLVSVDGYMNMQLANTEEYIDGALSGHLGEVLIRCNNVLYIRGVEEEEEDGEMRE
Experiment [27] deals with Sorting nexin-9 (Homo sapiens) (UniProt Q9Y5X1).
In experiment [28] the target is Dual specificity testis-specific protein kinase 1 (Homo sapiens) (UniProt Q15569).
For experiment [29], the target named is Vacuolar protein sorting-associated protein 51 homolog (Homo sapiens) (UniProt Q9UID3).
Experiment [30] concerns the target YTH domain-containing family protein 2 (Homo sapiens) (UniProt Q9Y5A9).
The target of experiment [31] is Putative uncharacterized protein ZNF436-AS1 (Homo sapiens) (UniProt Q8NC38).
For experiment [32], the target named is Hydroxyacyl-coenzyme A dehydrogenase, mitochondrial (Homo sapiens) (UniProt Q16836).
Experiment [33] deals with Large ribosomal subunit protein bL9m (Homo sapiens) (UniProt Q9BYD2).
Experiment [34] addresses Chloride intracellular channel protein 4 (Homo sapiens) (UniProt Q9Y696).
Experiment [35] concerns the target Eukaryotic translation initiation factor 3 subunit D (Homo sapiens) (UniProt O15371).
The target of experiment [36] is 10 kDa heat shock protein, mitochondrial (Homo sapiens) (UniProt P61604).
Experiment [37] addresses E3 ubiquitin-protein ligase listerin (Homo sapiens) (UniProt O94822).
The target in experiment [38] is C-1-tetrahydrofolate synthase, cytoplasmic (Homo sapiens) (UniProt P11586).
The target in experiment [39] is Phosphopentomutase (Homo sapiens) (UniProt Q96G03).
The target of experiment [40] is Small ribosomal subunit protein eS28 (Homo sapiens) (UniProt P62857).
For experiment [41], the target named is Solute carrier family 25 member 3 (Homo sapiens) (UniProt Q00325).
In experiment [42] the target is Serine-threonine kinase receptor-associated protein (Homo sapiens) (UniProt Q9Y3F4).
In another experiment the target is Translin (Homo sapiens) (UniProt Q15631).
In experiment [43] the target is 14-3-3 protein beta/alpha (Homo sapiens) (UniProt P31946).
Further: assay method not described here.

Chain of E3 ubiquitin-protein ligase listerin (Homo sapiens) (O94822 whole entry): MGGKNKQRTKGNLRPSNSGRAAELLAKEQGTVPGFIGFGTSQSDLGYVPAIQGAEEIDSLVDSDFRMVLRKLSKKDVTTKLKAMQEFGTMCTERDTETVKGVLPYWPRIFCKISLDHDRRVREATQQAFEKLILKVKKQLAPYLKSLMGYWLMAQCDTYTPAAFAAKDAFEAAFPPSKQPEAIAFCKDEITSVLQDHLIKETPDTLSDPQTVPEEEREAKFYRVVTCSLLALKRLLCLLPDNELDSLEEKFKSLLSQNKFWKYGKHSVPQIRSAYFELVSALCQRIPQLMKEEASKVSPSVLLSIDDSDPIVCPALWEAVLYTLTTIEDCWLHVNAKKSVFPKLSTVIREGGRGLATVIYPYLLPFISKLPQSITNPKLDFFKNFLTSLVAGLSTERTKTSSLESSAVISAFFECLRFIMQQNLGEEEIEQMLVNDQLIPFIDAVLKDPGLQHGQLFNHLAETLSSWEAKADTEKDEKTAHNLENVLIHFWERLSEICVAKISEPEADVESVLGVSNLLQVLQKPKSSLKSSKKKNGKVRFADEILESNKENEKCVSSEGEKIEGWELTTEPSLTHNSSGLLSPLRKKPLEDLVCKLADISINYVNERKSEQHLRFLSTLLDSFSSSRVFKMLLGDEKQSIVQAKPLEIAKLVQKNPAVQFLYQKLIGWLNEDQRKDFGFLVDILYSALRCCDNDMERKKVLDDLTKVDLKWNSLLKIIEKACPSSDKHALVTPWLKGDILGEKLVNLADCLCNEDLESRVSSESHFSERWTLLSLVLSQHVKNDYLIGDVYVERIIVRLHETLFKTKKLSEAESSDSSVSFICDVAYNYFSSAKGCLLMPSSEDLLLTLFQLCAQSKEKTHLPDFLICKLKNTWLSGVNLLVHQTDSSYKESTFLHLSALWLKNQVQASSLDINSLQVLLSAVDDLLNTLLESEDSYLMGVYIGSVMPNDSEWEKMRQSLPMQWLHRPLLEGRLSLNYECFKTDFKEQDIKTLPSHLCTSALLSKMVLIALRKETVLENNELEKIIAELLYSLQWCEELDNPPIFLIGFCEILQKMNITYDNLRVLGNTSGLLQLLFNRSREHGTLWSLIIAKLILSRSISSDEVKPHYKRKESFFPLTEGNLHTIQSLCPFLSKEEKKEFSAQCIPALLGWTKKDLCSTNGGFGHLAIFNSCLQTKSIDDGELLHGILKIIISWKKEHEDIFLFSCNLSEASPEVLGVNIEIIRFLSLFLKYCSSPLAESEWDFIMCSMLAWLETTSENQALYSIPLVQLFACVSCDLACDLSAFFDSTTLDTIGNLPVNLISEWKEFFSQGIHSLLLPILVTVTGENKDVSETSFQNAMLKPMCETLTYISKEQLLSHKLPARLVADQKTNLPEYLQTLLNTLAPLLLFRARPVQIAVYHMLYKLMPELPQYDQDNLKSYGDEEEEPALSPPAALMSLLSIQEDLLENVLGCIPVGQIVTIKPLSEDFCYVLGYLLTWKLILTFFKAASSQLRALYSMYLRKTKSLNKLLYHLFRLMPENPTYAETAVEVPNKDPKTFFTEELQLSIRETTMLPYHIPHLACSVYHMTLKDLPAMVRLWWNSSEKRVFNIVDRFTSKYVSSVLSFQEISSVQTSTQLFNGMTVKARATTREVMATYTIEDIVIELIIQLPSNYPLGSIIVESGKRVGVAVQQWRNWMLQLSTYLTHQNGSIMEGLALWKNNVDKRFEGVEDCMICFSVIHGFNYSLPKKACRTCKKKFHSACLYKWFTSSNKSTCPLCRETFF
Chain of Man(5)GlcNAc(2)-PP-dolichol translocation protein RFT1 (Homo sapiens) (Q96AA3 whole entry): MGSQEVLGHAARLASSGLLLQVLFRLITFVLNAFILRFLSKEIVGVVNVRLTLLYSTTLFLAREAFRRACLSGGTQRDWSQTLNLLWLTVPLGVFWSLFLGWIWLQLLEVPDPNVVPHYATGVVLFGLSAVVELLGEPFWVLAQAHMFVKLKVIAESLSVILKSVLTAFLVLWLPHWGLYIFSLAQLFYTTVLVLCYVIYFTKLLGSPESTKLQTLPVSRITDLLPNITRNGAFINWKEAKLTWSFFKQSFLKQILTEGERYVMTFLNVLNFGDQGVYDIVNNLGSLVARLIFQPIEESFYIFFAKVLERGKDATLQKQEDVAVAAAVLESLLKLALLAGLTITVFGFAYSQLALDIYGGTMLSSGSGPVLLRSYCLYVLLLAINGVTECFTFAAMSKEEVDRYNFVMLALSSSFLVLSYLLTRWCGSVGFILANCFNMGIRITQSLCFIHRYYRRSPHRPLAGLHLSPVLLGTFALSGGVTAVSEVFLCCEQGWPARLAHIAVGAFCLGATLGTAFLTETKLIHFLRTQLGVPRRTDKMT
Chain of YTH domain-containing family protein 2 (Homo sapiens) (Q9Y5A9 whole entry, the tested form may be a part): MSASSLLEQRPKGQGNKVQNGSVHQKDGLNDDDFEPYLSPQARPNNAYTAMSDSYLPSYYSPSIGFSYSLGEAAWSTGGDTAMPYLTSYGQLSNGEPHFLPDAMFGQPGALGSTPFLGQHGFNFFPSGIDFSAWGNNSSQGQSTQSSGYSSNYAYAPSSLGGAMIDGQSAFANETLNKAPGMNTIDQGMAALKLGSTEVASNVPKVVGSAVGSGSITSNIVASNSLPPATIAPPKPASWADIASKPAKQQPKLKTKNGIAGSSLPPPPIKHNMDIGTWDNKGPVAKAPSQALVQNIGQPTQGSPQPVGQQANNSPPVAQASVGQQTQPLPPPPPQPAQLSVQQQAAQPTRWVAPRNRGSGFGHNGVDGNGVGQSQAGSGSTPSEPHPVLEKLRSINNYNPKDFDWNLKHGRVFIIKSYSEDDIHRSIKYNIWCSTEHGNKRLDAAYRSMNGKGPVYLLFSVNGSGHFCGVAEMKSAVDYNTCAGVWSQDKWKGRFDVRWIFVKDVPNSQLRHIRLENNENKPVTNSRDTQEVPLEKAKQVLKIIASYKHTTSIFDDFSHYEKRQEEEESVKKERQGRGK

As for `Cc1ccc(C(=O)Nc2cccc(C(F)(F)F)c2)cc1Nc1nc(-c2cccnc2)nc2c1cnn2C`, the ED50 in [1] is 44800 nM; in experiment [2] it was 896 nM; in [3], 946 nM; in experiment [4] it was 1130 nM; in experiment [5], 6770 nM; in [6], 1180 nM. The ED50 came out at 626 nM in experiment [7]; 63.9 nM in experiment [8]; 4.53 nM in experiment [9]; 932 nM in experiment [10]; 5470 nM in experiment [11]; 13200 nM in experiment [12]. The ED50 turned out to be 3240 nM in experiment [13]; 676 nM on Cullin-5 (Homo sapiens); 61800 nM in [14]; 12800 nM in experiment [15]; 0.417 nM in experiment [16]; 2.29 nM in experiment [17]. The ED50 in [18] was determined as 28.7 nM; in experiment [19], 53300 nM; in [20], 6.04 nM; in [21], 579 nM; in experiment [22], 89900 nM; in [23], 6660 nM. Further, the ED50 in experiment [24] is 23200 nM; in experiment [25] it was 519 nM; in experiment [26] it was 143000 nM; in experiment [27], 494 nM; in experiment [28], 0.117 nM; in the experiment filed under Homo sapiens, 5280 nM. The ED50 in [29] came to 5200 nM; in [30], 68.5 nM; in experiment [31], 8640 nM; in experiment [32], 6.25 nM; in experiment [33], 9580 nM.

Regarding `Cc1ccc(C(=O)Nc2cccc(C(F)(F)F)c2)cc1Nc1nc(-c2cccnc2)nc2nn(C)cc12`, the ED50 in experiment [34] amounted to 53.4 nM; in experiment [35], 50.4 nM; in [36], 76.5 nM; in experiment [37], 753 nM; in [38], 87.1 nM; in [39], 149000 nM. Moreover, the ED50 in experiment [40] is 59.5 nM; in [41], 8080 nM; in [42], 17.7 nM; at Translin (Homo sapiens) it was 1.01 nM; in experiment [43] it was 80.7 nM.
